These results are taken from ChEMBL document CHEMBL5223131, “A first-in-class clinical G-quadruplex-targeting drug. The bench-to-bedside translation of the fluoroquinolone QQ58 to CX-5461 (Pidnarulex)” (Bioorg Med Chem Lett, 2022).

Each structure is given as a SMILES string. Active and inactive are the calls of the source. No cut-off for these calls is given here.

Assay [1] has as its target T1, DNA topoisomerase II (Homo sapiens) (UniProt P11388+Q02880). The experiment in a line: Inhibition of human Top2 assessed as decrease in enzyme mediated DNA cleavage at site A at low concentration. The assay is classed as protein assay.
Assay [2] deals with T1, DNA topoisomerase II (Homo sapiens). Put plainly: Inhibition of human Top2 assessed as decrease in enzyme mediated DNA cleavage at site A at high concentration. The assay is classed as protein assay.
Assay [3] shares this target. The experiment in a line: Inhibition of human Top2 assessed as decrease in intensity of decatenated DNA using catenated KDNA at 0.5 to 10 uM. The assay is classed as protein assay. As to conditions: dose 0.5-10 µM.
Assay [4] addresses DNA topoisomerase 2-alpha (Homo sapiens) (UniProt P11388). Put plainly: Inhibition of human Top2 assessed as decrease in intensity of decatenated DNA using catenated KDNA at 2 to 50 uM. As to conditions: dose 2-50 µM.
Assay [5] deals with T1, DNA topoisomerase II (Homo sapiens). Put plainly: Inhibition of human Top2 assessed as decrease in enzyme mediated DNA cleavage at site A at 0.5 to 10 uM. In kind it is protein assay. The conditions noted are these: dose 0.5-10 µM.

Sequence of DNA topoisomerase 2-alpha (Homo sapiens) (P11388 whole entry): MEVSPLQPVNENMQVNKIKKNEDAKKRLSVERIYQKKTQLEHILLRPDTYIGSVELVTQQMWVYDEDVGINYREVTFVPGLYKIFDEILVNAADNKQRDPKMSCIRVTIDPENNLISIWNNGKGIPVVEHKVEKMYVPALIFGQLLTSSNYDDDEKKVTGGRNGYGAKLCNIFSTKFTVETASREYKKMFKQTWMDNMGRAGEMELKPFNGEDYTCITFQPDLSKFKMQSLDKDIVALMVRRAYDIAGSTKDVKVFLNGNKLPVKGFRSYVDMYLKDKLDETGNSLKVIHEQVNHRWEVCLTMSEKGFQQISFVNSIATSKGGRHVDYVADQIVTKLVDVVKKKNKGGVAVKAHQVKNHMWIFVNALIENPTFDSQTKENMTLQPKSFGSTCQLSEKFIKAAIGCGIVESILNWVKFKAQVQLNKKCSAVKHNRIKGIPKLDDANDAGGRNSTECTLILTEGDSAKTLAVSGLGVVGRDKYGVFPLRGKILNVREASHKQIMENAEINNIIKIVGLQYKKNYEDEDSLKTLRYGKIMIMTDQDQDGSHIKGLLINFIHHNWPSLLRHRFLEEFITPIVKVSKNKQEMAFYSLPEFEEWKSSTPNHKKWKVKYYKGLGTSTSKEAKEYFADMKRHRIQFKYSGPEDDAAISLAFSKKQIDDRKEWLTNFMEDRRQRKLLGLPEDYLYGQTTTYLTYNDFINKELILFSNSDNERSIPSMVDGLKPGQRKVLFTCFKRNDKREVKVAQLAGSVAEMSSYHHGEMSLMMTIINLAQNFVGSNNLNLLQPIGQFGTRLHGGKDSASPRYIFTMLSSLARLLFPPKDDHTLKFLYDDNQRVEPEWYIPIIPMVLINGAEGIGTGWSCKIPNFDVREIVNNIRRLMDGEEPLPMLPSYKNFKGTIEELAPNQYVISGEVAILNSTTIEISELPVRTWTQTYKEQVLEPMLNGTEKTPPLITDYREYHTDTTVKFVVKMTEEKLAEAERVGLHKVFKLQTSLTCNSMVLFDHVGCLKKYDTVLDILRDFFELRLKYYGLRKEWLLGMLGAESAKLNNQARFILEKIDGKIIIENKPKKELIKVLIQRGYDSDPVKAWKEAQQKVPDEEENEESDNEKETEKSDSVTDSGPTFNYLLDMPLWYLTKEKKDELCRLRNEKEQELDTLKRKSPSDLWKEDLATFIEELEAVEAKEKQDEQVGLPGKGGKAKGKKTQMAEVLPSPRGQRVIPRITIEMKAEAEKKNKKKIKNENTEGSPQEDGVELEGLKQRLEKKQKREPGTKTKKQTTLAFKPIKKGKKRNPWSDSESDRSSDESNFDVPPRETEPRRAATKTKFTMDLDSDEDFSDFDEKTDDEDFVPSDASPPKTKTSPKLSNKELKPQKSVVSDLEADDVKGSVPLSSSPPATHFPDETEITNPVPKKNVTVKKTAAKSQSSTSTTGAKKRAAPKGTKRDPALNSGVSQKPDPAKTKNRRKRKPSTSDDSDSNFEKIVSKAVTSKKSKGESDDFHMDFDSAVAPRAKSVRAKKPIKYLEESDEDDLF

Consider `N[C@H]1CCN(c2c(F)cc3c(=O)c(C(=O)O)cn4c3c2Oc2ccccc2-4)C1`, for which the outcome in assay [1] and in assay [3] was Active. The outcome in assay [2] was inactive.
For `N[C@H]1CCN(c2c(F)cc3c(=O)c(C(=O)O)cn4c3c2Oc2cc3c(cc2-4)oc2ccccc23)C1`, the fold change (FC) in assay [4] is 5. The result in assay [5] was Active.
